Results as given in patent publication US20120251628A1, “COMPOSITIONS AND METHODS FOR TREATMENT OF CANCER” (priority 2011, published 2012).

Columns and labels:
[1] = system: CT26 (mouse colon cancer); test: DCE-MRI of tumor vascularity (Kep) in CT26 tumor mice; format: in vivo
Procedure: To determine whether the occurrence of central necrosis of tumors 24 hours after treatment was caused by the reduction of vascularity, DCE-MRI was used before the medication was administered and 24 hours after administration.
Inoculate CT26 (mouse colon cancer) 2×10^6 cell subcutaneously into mice on the upper parts of their thighs.
After checking the tumor size between 6 to 10 mm, acquire images through MRI.
Image Acquisition: Use a magnetic resonance imaging device (i.e., 3 Tesla Intera human clinical scanner; Philips medical systems) and a mouse coil with an inner diameter of 4 cm to get images. Acquire images before the drug is administered and those 24 hours after that for two days.
MR Pulse Sequence as follows: Dynamic Contrast enhanced MRI scan: FOV (mm)=50×35; RFOV (%)=71; Matrix scan=112; reconstruction=224; TR/TE (ms)=12/4.0; slice thickness=1 mm; slice number=11; dynamic scans=60.
i. Conduct an experiment to the subjects under anesthesia by using an inhalation anesthetic mixing 1.5% isoflurane in 100% oxygen at a flow rate of 1 L/min.
ii. Cannulate an intravenous injection line through the tail vein to inject a contrast agent.
iii. Use Gd-DTPA (Magnevist, Schering, Germany, 281 mg/kg) as a contrast agent and get pre-contrast images before injecting the contrast agent and post-contrast images after injecting it.
iv. After getting the images, inject KML001 (10 mg/kg) and Arsenic trioxide (7.5 mg/kg) intraperitoneally.
v. Get images through a dynamic scan again 24 hours after injection.
Accordingly, the groups of animals with which the DCE-MRI data was obtained are as follows: Group of animals treated with ATO: n=4, Group of animals treated with Saline: n=4 and Group of animals treated with KML001: n=6.
As the low data in MRI was mapped from each result of the DCE-MRI to the positive control group of animals treated with ATO, the negative control group of animals treated with saline and the experimental group of animals treated with KML001, Kep values important for tumor vascularity were calculated. Kep (rate constant) is the back diffusion rate constant from interstitial space to vascular space, reflecting leakage of tumor vessels, i.e., a measurement of vascularity.

[2] = system: acute promyelocytic leukemia (APL); settings: patients to which arsenic trioxide was administered; cited from earlier work

arsenic trioxide [ATO, reference compound]
Kep values (back diffusion rate constant, tumor vascularity) ([1]; 24 hours after intraperitoneal injection vs pre-treatment, KML001 10 mg/kg, ATO 7.5 mg/kg): significantly reduced | contrast enhancement of the tumors in the MRI ([1]; 24 hours after treatment): decreased | patients showing therapeutic effects without acute toxicity [2]: more than 80%
